Test results: ChEMBL document CHEMBL1201862, “PubChem BioAssay data set” (2004)
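Results reflect a 48-hour exposure of cells in 96-well plates to compound at five concentrations. GI50 is the concentration that inhibits growth by half.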 The source made the active and inactive calls. Cut-off read from the data, not from the text of the source: active = GI50 up to about 1.1 µM and inactive = higher.

Tests used:
Test in all cases: NCI tumour cell line growth inhibition, 48 h
SR = test system: SR
UACC-257 = test system: UACC-257
IGROV-1 = test system: IGROV-1
MDA-N = test system: MDA-N
LOX IMVI = test system: LOX IMVI
NCI-H226 = test system: NCI-H226
SK-MEL-28 = test system: SK-MEL-28
OVCAR-5 = test system: OVCAR-5
HCC 2998 = test system: HCC 2998
HOP-62 = test system: HOP-62
MDA-MB-435 = test system: MDA-MB-435
HL-60 = test system: HL-60
NCI/ADR-RES = test system: NCI/ADR-RES
NCI-H23 = test system: NCI-H23
HCT-116 = test system: HCT-116
EKVX = test system: EKVX
A498 = test system: A498
NCI-H522 = test system: NCI-H522
KM12 = test system: KM12
SF-295 = test system: SF-295
SF-268 = test system: SF-268
OVCAR-3 = test system: OVCAR-3
MCF7 = test system: MCF7
HT-29 = test system: HT-29
SF-539 = test system: SF-539
MOLT-4 = test system: MOLT-4
CAKI-1 = test system: CAKI-1
K562 = test system: K562
TK-10 = test system: TK-10
HCT-15 = test system: HCT-15
HOP-92 = test system: HOP-92
T47D = test system: T47D
OVCAR-4 = test system: OVCAR-4
UO-31 = test system: UO-31
SK-OV-3 = test system: SK-OV-3
OVCAR-8 = test system: OVCAR-8
Hs-578T = test system: Hs-578T
DU-145 = test system: DU-145
SK-MEL-2 = test system: SK-MEL-2
CCRF-CEM = test system: CCRF-CEM
SK-MEL-5 = test system: SK-MEL-5
MDA-MB-231 = test system: MDA-MB-231
SW-620 = test system: SW-620
U-251 = test system: U-251
NCI-H460 = test system: NCI-H460
PC-3 = test system: PC-3
M14 = test system: M14
RPMI-8226 = test system: RPMI-8226
786-0 = test system: 786-0
ACHN = test system: ACHN
RXF 393 = test system: RXF 393
BT-549 = test system: BT-549
Malme-3M = test system: Malme-3M
UACC-62 = test system: UACC-62
SN12C = test system: SN12C
A549 = test system: A549
SNB-19 = test system: SNB-19
COLO 205 = test system: COLO 205
SNB-75 = test system: SNB-75

SMILES: Cc1cc(OCc2nnc3n2N=C(c2cc(F)c(Cl)cc2Cl)/C(=C/c2ccc(Cl)cc2)S3)ccc1Cl
- GI50 (SR): 7.96 µM (inactive)
- GI50 (UACC-257): 38.5 µM (inactive)
- GI50 (IGROV-1): 20.9 µM (inactive)
- GI50 (MDA-N): 32.4 µM (inactive)
- GI50 (LOX IMVI): 21.9 µM (inactive)
- GI50 (NCI-H226): 46 µM (inactive)
- GI50 (SK-MEL-28): 19.8 µM (inactive)
- GI50 (OVCAR-5): 24.1 µM (inactive)
- GI50 (HCC 2998): 19.6 µM (inactive)
- GI50 (HOP-62): 43.1 µM (inactive)
- GI50 (MDA-MB-435): 24.2 µM (inactive)
- GI50 (HL-60): 1.91 µM (inactive)
- GI50 (NCI/ADR-RES): 33.2 µM (inactive)
- GI50 (NCI-H23): 27.4 µM (inactive)
- GI50 (HCT-116): 12.8 µM (inactive)
- GI50 (EKVX): 39.4 µM (inactive)
- GI50 (A498): 24.2 µM (inactive)
- GI50 (NCI-H522): 14.7 µM (inactive)
- GI50 (KM12): 22.9 µM (inactive)
- GI50 (SF-295): 29.9 µM (inactive)
- GI50 (SF-268): 22.8 µM (inactive)
- GI50 (OVCAR-3): 30.5 µM (inactive)
- GI50 (MCF7): 23.3 µM (inactive)
- GI50 (HT-29): 16.7 µM (inactive)
- GI50 (SF-539): 44.9 µM (inactive)
- GI50 (MOLT-4): 0.337 µM (active)
- GI50 (CAKI-1): 18.6 µM (inactive)
- GI50 (K562): 8.38 µM (inactive)
- GI50 (TK-10): 32.6 µM (inactive)
- GI50 (HCT-15): 19.7 µM
- GI50 (HOP-92): 18.1 µM (inactive)
- GI50 (T47D): 20.4 µM (inactive)
- GI50 (OVCAR-4): 19.5 µM (inactive)
- GI50 (UO-31): 27.5 µM (inactive)
- GI50 (SK-OV-3): 50.9 µM (inactive)
- GI50 (OVCAR-8): 18.8 µM (inactive)
- GI50 (Hs-578T): 15.2 µM (inactive)
- GI50 (DU-145): 17.4 µM (inactive)
- GI50 (SK-MEL-2): 29 µM (inactive)
- GI50 (CCRF-CEM): 2.95 µM (inactive)
- GI50 (SK-MEL-5): 17.9 µM (inactive)
- GI50 (MDA-MB-231): 29.7 µM (inactive)
- GI50 (SW-620): 17.4 µM (inactive)
- GI50 (U-251): 18.3 µM (inactive)
- GI50 (NCI-H460): 25.9 µM (inactive)
- GI50 (PC-3): 21.4 µM (inactive)
- GI50 (M14): 25 µM (inactive)
- GI50 (RPMI-8226): 11.7 µM (inactive)
- GI50 (786-0): 28.1 µM (inactive)
- GI50 (ACHN): 33.5 µM (inactive)
- GI50 (RXF 393): 17 µM (inactive)

SMILES: Cc1ccnc(Nc2[nH]c(C(=O)c3ccc(Cl)cc3)c(N)c2C(=S)Nc2ccccc2)c1
- GI50 (SR): 12.6 µM (inactive)
- GI50 (UACC-257): 15.6 µM (inactive)
- GI50 (IGROV-1): 9.02 µM (inactive)
- GI50 (BT-549): 14.2 µM (inactive)
- GI50 (MDA-N): 15.2 µM (inactive)
- GI50 (Malme-3M): 13.8 µM (inactive)
- GI50 (LOX IMVI): 14.8 µM (inactive)
- GI50 (NCI-H226): 17.7 µM (inactive)
- GI50 (UACC-62): 10.6 µM (inactive)
- GI50 (SK-MEL-28): 18.6 µM (inactive)
- GI50 (OVCAR-5): 21.2 µM (inactive)
- GI50 (HCC 2998): 14.7 µM (inactive)
- GI50 (HOP-62): 20.5 µM (inactive)
- GI50 (MDA-MB-435): 15.7 µM (inactive)
- GI50 (HL-60): 23.8 µM (inactive)
- GI50 (NCI/ADR-RES): 2.57 µM (inactive)
- GI50 (NCI-H23): 19.3 µM (inactive)
- GI50 (HCT-116): 14.2 µM (inactive)
- GI50 (EKVX): 14.5 µM (inactive)
- GI50 (SN12C): 15.7 µM (inactive)
- GI50 (A498): 19.1 µM (inactive)
- GI50 (NCI-H522): 12.8 µM (inactive)
- GI50 (KM12): 10 µM (inactive)
- GI50 (SF-295): 14.5 µM (inactive)
- GI50 (SF-268): 21.1 µM (inactive)
- GI50 (OVCAR-3): 25.8 µM (inactive)
- GI50 (MCF7): 9.16 µM (inactive)
- GI50 (HT-29): 14.9 µM (inactive)
- GI50 (SF-539): 12.7 µM (inactive)
- GI50 (MOLT-4): 10.9 µM (inactive)
- GI50 (CAKI-1): 27.9 µM (inactive)
- GI50 (K562): 18.3 µM (inactive)
- GI50 (TK-10): 17.2 µM (inactive)
- GI50 (HCT-15): 16.1 µM
- GI50 (HOP-92): 17.2 µM (inactive)
- GI50 (T47D): 19.7 µM (inactive)
- GI50 (OVCAR-4): 6.01 µM (inactive)
- GI50 (UO-31): 18 µM (inactive)
- GI50 (A549): 16 µM (inactive)
- GI50 (SK-OV-3): 13.8 µM (inactive)
- GI50 (OVCAR-8): 12.2 µM (inactive)
- GI50 (SNB-19): 23.4 µM (inactive)
- GI50 (DU-145): 22.1 µM (inactive)
- GI50 (SK-MEL-2): 8.59 µM (inactive)
- GI50 (CCRF-CEM): 25.8 µM (inactive)
- GI50 (MDA-MB-231): 16.6 µM (inactive)
- GI50 (COLO 205): 16 µM (inactive)
- GI50 (SW-620): 25.9 µM (inactive)
- GI50 (U-251): 15.1 µM (inactive)
- GI50 (NCI-H460): 5.82 µM (inactive)
- GI50 (PC-3): 20.8 µM (inactive)
- GI50 (M14): 16.4 µM (inactive)
- GI50 (SNB-75): 18.1 µM (inactive)
- GI50 (RPMI-8226): 11 µM (inactive)
- GI50 (786-0): 19.1 µM (inactive)
- GI50 (ACHN): 21.7 µM (inactive)
- GI50 (RXF 393): 15.9 µM (inactive)
